Reference: patent publication US7112418B2, “Ion channel” (priority 1995, dated 2006)
Read-outs that look alike come from different tables or passages of the source.

Tests used:
[1] = system: Rat brain iia sodium channel; conditions: read-out: IC50 (TTX Sensitivity); cited from earlier work
[2] = biological target: mutated SNS sodium channel (SNS mutant) (Rattus norvegicus, UniProt Q62968, S356F); format: cell-based; conditions: read-out: IC50 (TTX sensitivity restored)
SNS sodium channel = SNS sodium channel (Rattus norvegicus, UniProt Q62968); format: cell-based
Sequence of SNS sodium channel (Q62968 other isoform, or with tags, fused parts or gaps with the stated changes): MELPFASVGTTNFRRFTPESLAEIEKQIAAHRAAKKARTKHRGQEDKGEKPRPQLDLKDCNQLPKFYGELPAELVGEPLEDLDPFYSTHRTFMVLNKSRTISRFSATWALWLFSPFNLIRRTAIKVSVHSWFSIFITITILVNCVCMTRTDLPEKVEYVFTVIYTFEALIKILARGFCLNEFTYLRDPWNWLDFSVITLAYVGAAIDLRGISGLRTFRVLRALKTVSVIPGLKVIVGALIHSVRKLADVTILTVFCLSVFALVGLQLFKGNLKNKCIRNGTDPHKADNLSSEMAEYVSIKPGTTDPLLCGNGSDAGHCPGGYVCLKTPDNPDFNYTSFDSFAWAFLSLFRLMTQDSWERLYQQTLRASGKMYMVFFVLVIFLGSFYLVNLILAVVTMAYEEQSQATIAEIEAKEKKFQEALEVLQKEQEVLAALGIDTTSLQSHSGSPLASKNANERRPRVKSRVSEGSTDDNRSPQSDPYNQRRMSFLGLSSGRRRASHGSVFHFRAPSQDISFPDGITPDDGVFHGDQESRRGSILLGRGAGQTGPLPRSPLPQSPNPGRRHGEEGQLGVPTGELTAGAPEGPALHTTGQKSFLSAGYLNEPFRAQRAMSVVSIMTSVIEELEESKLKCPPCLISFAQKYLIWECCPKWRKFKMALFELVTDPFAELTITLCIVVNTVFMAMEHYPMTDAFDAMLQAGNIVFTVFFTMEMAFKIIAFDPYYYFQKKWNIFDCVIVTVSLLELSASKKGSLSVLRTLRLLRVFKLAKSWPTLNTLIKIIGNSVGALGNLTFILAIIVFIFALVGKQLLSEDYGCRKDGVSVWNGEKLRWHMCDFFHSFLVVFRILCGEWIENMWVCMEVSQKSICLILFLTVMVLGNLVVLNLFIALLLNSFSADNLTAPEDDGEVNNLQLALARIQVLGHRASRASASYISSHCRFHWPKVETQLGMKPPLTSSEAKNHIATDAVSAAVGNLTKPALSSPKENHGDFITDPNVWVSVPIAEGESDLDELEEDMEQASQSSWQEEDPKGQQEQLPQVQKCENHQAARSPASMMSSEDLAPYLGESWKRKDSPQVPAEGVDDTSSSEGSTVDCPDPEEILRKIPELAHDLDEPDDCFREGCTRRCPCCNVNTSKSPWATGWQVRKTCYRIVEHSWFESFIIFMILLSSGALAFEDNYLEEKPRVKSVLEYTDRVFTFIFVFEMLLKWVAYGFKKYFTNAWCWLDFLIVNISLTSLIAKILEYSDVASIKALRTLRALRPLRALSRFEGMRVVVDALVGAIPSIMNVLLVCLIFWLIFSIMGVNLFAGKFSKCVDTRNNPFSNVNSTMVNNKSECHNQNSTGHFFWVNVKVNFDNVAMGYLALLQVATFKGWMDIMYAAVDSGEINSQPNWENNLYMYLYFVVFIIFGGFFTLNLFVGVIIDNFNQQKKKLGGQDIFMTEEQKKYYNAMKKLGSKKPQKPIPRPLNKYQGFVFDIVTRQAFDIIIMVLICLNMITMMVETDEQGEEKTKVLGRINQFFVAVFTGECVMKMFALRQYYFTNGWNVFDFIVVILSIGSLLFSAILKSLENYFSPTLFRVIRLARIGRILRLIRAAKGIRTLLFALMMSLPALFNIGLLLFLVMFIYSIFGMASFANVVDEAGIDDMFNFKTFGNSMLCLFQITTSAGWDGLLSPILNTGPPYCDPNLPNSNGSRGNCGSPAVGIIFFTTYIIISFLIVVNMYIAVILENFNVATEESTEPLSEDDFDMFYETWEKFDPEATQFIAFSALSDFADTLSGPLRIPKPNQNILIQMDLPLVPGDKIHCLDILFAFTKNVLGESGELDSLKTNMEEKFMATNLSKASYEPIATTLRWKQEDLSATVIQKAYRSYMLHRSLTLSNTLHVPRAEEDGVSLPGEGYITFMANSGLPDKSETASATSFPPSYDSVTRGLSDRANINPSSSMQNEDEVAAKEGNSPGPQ

[3] = biological target: muscle type 1 sodium channel (Rattus norvegicus, UniProt P15390); conditions: read-out: IC50 (TTX Sensitivity); cited from earlier work
Sequence of muscle type 1 sodium channel (P15390 whole entry, looked up): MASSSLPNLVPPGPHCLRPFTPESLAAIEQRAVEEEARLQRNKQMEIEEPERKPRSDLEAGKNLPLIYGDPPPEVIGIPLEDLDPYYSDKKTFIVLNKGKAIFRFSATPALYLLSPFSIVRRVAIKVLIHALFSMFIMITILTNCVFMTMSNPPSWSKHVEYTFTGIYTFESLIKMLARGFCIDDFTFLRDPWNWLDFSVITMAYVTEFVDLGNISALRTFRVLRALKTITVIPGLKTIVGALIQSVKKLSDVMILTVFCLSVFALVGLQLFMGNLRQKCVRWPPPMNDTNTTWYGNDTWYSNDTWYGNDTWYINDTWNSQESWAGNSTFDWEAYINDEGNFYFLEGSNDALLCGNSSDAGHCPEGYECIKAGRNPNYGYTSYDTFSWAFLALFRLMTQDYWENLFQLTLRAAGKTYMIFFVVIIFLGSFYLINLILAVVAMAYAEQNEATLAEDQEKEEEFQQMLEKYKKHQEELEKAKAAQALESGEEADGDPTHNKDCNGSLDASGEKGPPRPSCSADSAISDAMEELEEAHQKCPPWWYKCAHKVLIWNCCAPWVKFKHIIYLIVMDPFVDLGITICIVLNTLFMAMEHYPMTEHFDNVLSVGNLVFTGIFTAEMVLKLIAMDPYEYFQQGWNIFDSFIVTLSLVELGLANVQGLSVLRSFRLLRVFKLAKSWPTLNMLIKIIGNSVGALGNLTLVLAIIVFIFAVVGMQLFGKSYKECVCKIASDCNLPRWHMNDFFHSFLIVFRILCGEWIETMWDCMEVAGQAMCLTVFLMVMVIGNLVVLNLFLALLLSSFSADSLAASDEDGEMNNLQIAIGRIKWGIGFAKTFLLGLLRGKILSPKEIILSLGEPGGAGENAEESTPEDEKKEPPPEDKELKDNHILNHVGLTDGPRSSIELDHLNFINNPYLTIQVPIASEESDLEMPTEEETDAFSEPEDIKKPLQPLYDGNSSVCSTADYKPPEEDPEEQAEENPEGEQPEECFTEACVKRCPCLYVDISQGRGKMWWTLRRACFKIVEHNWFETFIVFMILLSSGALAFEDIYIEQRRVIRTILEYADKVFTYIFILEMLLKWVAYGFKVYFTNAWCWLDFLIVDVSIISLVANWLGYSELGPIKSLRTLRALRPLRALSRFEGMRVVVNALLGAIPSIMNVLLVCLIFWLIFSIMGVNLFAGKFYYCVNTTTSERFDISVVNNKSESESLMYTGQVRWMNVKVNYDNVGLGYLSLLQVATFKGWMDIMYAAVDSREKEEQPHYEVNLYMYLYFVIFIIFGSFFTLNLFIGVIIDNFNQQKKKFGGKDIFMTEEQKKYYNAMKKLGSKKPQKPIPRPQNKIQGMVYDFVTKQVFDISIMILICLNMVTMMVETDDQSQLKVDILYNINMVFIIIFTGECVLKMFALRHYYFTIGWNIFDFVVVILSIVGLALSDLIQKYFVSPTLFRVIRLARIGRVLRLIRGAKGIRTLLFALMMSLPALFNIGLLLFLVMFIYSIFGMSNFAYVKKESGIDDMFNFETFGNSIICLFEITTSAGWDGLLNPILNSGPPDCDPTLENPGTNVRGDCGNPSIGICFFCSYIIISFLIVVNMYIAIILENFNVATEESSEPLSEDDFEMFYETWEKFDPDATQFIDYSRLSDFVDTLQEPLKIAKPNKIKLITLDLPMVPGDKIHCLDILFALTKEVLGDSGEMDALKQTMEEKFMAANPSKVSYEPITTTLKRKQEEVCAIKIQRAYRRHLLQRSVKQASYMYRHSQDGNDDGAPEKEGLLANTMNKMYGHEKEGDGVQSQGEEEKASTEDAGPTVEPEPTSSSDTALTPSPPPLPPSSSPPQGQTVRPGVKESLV

[4] = system: DRG sodium channel transcripts; experiment: RT-PCR of DRG sodium channel transcripts in cultured DRG neurons treated with capsaicin; format: cell-based, rat; conditions: overnight 10 μM
Description: (§1) cDNA was synthesized with Superscript reverse transcriptase using oligo dT(12-18) primers and purified on Qiagen 5 tips. Polymerase chain reaction (PCR) was used to amplify cDNA (35 cycles, 94° C., 1 min; 55° C., 1 min; and 72° C., 1 min), and products separated on agarose gels before staining with ethidium bromide. L-27 primers (Ninkina et al. (1983) Nucleic Acids Res. 21, 3175-3182) were added to the PCR reaction 5 cycles after the start of the reaction with the DRG sodium channel specific primers which comprised

[5] = system: DRG sodium channel transcript; experiment: Northern blot of adult DRG RNA from rats treated with capsaicin as neonates; format: in vivo, rat; conditions: neonatal rats treated, total adult DRG RNA
Description: Random primed ^32P-labeled DNA Pst-Acc 1 fragment probes (50 ng, specific activity 2×10^9 c.p.m. per μg DNA) from interdomain region 1 (nucleotide position 1,478-1,892) of the SNS sodium channel nucleic acid sequence were used to probe total RNA extracted from tissues.
Total RNA was separated on 1.2% agarose-formaldehyde gels, and capillary blotted onto Hibond-N filters (Amersham). The amounts of RNA on the blot were roughly equivalent, as judged by ethidium bromide staining of ribosomal RNA and by hybridization with the ubiquitously expressed L-27 ribosomal protein transcripts. Filters were prehybridized in 50% formamide, 5×SSC containing 0.5% sodium dodecyl sulfate, 5× Denhardts solution, 100 μg/ml boiled sonicated salmon sperm DNA (average size 300 bp), 10 μg/ml poly-U and 10 μg/ml poly-C at 45° C. for 6 h. After 36 hours hybridization in the same conditions using 10^7 c.p.m. per ml hybridization probe, the filters were briefly washed in 2×SSC at room temperature, then twice with 2×SSC with 0.5% SDS at 68° C. for 15 min, followed by a 20 min wash in 0.5% SDS, 0.2×SSC at 68° C. The filters were autoradiographed overnight or for 4 days on autoradiography film (Kodak X-omat).

[6] = system: DRG sodium channel transcripts; experiment: RT-PCR of DRG sodium channel transcripts in DRG of neonatal animals treated with capsaicin; format: in vivo, rat; conditions: 50 mg/kg on 2 consecutive days, DRG isolation 5 days later
Description: as §1

NC1=N[C@H](O)[C@H]2[C@H]3O[C@]4(O)O[C@@H]([C@@H](O)[C@@]2(N1)[C@@H]4O)[C@]3(O)CO [TTX, tetrodotoxin]
IC50 [1]: 18 nM
IC50 [2]: 2.5 nM
block of the channel (SNS sodium channel): only partially blocked
effect on peak Na+ current (SNS sodium channel): no effect
effect on the channel (SNS sodium channel): unaffected
reduction of peak Na+ current (SNS sodium channel): 19.1±8.3%
reversibility of effect on peak Na+ current (SNS sodium channel): quickly reversible upon washout
IC50 (SNS sodium channel; read-out: IC50 (TTX Sensitivity)): 60000 nM
IC50 (SNS sodium channel; read-out: IC50 (relative insensitivity to TTX)): > 1000 nM
IC50 (SNS sodium channel; read-out: estimated half-maximal inhibitory concentration (IC50)): 59600 ± 10100 nM
IC50 [3]: 40 nM

COc1cc(CNC(=O)CCCC/C=C/C(C)C)ccc1O [capsaicin]
DRG sodium channel signal (RT-PCR) compared with controls [4]: significant diminution
DRG sodium channel northern blot signal [5]: substantially reduced
DRG sodium channel signal (RT-PCR) compared with controls [6]: significant diminution

CCN(CC)CC(=O)Nc1c(C)cccc1C [lignocaine]
maximum block of peak current (SNS sodium channel): 41.7±5.4%

O=C1NC(=O)C(c2ccccc2)(c2ccccc2)N1 [phenytoin]
effect on peak current (SNS sodium channel; 100 μM, depolarizing pulses from −60 mV to +10 mV, 1 every min): no effect
